Experimental data: BindingDB's records for doi:10.1016/j.bmcl.2009.10.040 (Methylgene, 2009)

Tests used:
[1] = Inhibition of c-Met in human DU145 cells assessed as cell scattering
[2] = Inhibition of c-Met in human A549 cells by wound healing assay

IC50 [1]: 80 nM
IC50 [2]: 80 nM
SMILES: COc1cc2nccc(Oc3ccc(NC(=O)N4CCN(c5ccccc5)C4=O)cc3F)c2cc1OC
